Data reported in PMC8981563 (RSC Advances, 2022).

Biological target: T1, human GPR120 (Homo sapiens, UniProt Q5NUL3)
T1 sequence (Q5NUL3 1-361): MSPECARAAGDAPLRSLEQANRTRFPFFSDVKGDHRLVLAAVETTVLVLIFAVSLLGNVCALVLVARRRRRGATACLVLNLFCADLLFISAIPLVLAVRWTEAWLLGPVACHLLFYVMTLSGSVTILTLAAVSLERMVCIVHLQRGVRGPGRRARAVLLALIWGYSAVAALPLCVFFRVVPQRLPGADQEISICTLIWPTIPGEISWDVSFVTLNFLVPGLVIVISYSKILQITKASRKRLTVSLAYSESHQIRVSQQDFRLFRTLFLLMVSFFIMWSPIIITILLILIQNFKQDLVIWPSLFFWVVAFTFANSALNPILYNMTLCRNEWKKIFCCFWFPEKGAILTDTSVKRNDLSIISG
Assay: Ca2+ influx activity of CHO cells expressing human GPR120
Format: cell-based

Row | Compound | EC50 [nM]
1 | Cc1ccc(-c2ccc(F)cc2COc2ccc(CC3SC(=O)NC3=O)cc2)cc1 (stereo not shown) [Compound 1g, 5-(4-((4-Fluoro-4′-methyl-[1,1′-biphenyl]-2-yl)methoxy)benzyl)thiazolidine-2,4-dione] | 182 ± 13.2
2 | Cc1ccc(-c2ccc(F)cc2COc2ccc(CC3SC(=O)NC3=O)c(C)c2)cc1 (stereo not shown) [Compound 2g, 5-(4-((4-Fluoro-4′-methyl-[1,1′-biphenyl]-2-yl)methoxy)-2-methylbenzyl)thiazolidine-2,4-dione] | 134 ± 11.8
3 | Cc1ccc(-c2ccc(F)cc2COc2ccc(CC3SC(=O)NC3=O)cc2C)cc1 (stereo not shown) [Compound 6g, 5-(4-((4-Fluoro-4′-methyl-[1,1′-biphenyl]-2-yl)methoxy)-3-methylbenzyl)thiazolidine-2,4-dione] | 461 ± 36.1
4 | Cc1ccc(-c2ccc(F)cc2COc2ccc(CC3SC(=O)NC3=O)c(F)c2F)cc1 (stereo not shown) [Compound 8g, 5-(2,3-Difluoro-4-((4-fluoro-4′-methyl-[1,1′-biphenyl]-2-yl)methoxy)benzyl)thiazolidine-2,4-dione] | 142 ± 12.5
5 | Cc1ccc(-c2ccc(F)cc2COc2cc(F)c(CC3SC(=O)NC3=O)c(F)c2)cc1 (stereo not shown) [Compound 9g, 5-(2,6-Difluoro-4-((4-fluoro-4′-methyl-[1,1′-biphenyl]-2-yl)methoxy)benzyl)thiazolidine-2,4-dione] | 137 ± 16.3

More lines, in order of falling EC50, values ahead:

Row | EC50 [nM] | Compound
6 | 276 ± 20.5 | Cc1ccc(-c2ccc(F)cc2COc2ccc(CC3SC(=O)NC3=O)cc2F)cc1 (stereo not shown) [Compound 7g, 5-(3-Fluoro-4-((4-fluoro-4′-methyl-[1,1′-biphenyl]-2-yl)methoxy)benzyl)thiazolidine-2,4-dione]
7 | 122 ± 13.1 | COc1cc(OCc2cc(F)ccc2-c2ccc(C)cc2)ccc1CC1SC(=O)NC1=O (stereo not shown) [Compound 3g, 5-(4-((4-Fluoro-4′-methyl-[1,1′-biphenyl]-2-yl)methoxy)-2-methoxybenzyl)thiazolidine-2,4-dione]
